Measured values from ChEMBL document CHEMBL1140718, “Fragment-based discovery of mexiletine derivatives as orally bioavailable inhibitors of urokinase-type plasminogen activator” (J Med Chem, 2008).

Tests used:
[1] = target: Urokinase-type plasminogen activator (Homo sapiens, UniProt P00749)
[2] = Clearance in rat at 0.95 mg/kg, iv; assay type: ADME, organism-based; set-up: dose 0.95 mg/kg, route intravenous; settings: in vivo
[3] = Volume of distribution in rat at 0.95 mg/kg, iv; assay type: ADME, organism-based; set-up: dose 0.95 mg/kg, route intravenous; settings: in vivo
[4] = Half life in rat at 0.95 mg/kg, iv; assay type: ADME, organism-based; set-up: dose 0.95 mg/kg, route intravenous; settings: in vivo
[5] = Oral bioavailability in rat at 4.2 mg/kg; assay type: ADME, organism-based; settings: in vivo
[6] = Dissociation constant, pKa of the compound; assay type: physicochemical

## CCOC(=O)N1CCN(C(=O)[C@H](Cc2cccc(C(=N)N)c2)NS(=O)(=O)c2c(C(C)C)cc(C(C)C)cc2C(C)C)CC1
[1]
  IC50: 410 nM

## NC(N)=Nc1ncc(Cl)c2ccc(-c3cccc(C(=O)O)c3)cc12
[1]
  IC50: 37 nM

## CCOc1c(Cl)cc(N2CCCCC2)cc1NC(=O)c1cc(C)c(OC[C@@H](C)N)c(C)c1
[1]
  IC50: 460 nM

## N=C(N)c1ccc(CNC(=O)[C@H](CO)NC(=O)[C@@H](CO)NS(=O)(=O)Cc2ccccc2)cc1
[1]
  IC50: 20 nM

## NCCOc1c(Cl)cc(C(=O)Nc2ccccc2)cc1Cl
[1]
  IC50: 35000 nM

## COc1ccccc1NC(=O)c1cc(Cl)c(OCCN)c(Cl)c1
[1]
  IC50: 23000 nM

## Cc1cc(C(=O)Nc2cccc(OC(C)C)c2)cc(C)c1OCCN
[1]
  IC50: 2700 nM

## Cc1cc(C(=O)Nc2cc(OC(C)C)cc(OC(C)C)c2)cc(C)c1OCCN
[1]
  IC50: 72 nM

## CCOc1c(Cl)cc(N2CCCCC2)cc1NC(=O)c1cc(C)c(OCCN)c(C)c1
[2]
  clearance: 43 mL/min/kg
[3]
  Vd: 27 L/kg
[4]
  half-life: 7.5 h
[5]
  bioavailability: 60%
[6]
  pKa: 8.75

## Cc1cc(C(=O)Nc2cc(F)cc(N3CCOCC3)c2)cc(C)c1OCCN
[1]
  IC50: 1600 nM
